In patent publication US20190071416A1, “COMPOUNDS FOR TREATMENT OF CANCER AND EPIGENETICS” (Agency For Science, Technology and Research, priority 2015, published 2019) one finds IC50 data, which are given here for 32 compounds.

This assay addresses T1, SMYD3 (Homo sapiens, UniProt Q9H7B4).
T1 sequence (Q9H7B4 1-428): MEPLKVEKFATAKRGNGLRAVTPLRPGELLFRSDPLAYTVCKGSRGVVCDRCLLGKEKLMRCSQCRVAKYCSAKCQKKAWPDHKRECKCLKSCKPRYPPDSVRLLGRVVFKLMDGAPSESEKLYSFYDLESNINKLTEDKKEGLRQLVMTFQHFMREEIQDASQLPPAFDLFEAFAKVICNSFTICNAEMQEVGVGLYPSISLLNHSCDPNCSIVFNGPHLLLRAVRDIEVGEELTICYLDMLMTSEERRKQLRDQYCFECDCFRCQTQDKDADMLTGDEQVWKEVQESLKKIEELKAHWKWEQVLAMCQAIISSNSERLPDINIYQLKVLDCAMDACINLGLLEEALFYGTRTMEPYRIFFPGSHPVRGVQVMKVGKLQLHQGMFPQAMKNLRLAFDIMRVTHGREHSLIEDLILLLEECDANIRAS
As to the kind of experiment: SMYD3 biochemical assay (MTase-Glo, MAP3K2 peptide substrate). The note with it: Table 3; MTase assay, MAP3K2 peptide substrate; read-out: IC50. A digest of the protocol:
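Luminescent readout of SAH production (coupled SAH→ATP conversion, MTase-Glo) after SMYD3 reacted 30 min at room temperature with 1.0 µM SAM and 10 µM MAP3K2 peptide, both final. Non-linear regression gave IC50 values.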

For `CCCOC(=O)N1CCN(C(=O)c2ccc3c(Cl)c4c(nc3c2)CC(c2ncccc2C)CC4)C[C@H]1C` (stereo partly drawn) [A108, Propyl (2R)-4-(9-chloro-6-(3-methylpyridin-2-yl)-5,6,7,8-tetrahydroacridine-3-carbonyl)-2-methylpiperazine-1-carboxylate], the half-maximal inhibitory concentration (IC50) (in general, the point on the concentration scale where inhibition reaches its midpoint) was found to be 0.48 µM.
With `CCCOC(=O)N1CCN(C(=O)c2ccc3c(Cl)cc(-c4ccc(C(C)OCC)cc4)nc3c2)CC1` (centres unmarked) [B239, Propyl 4-(4-chloro-2-(4-(1-ethoxyethyl)phenyl)quinoline-7-carbonyl)piperazine-1-carboxylate] the figure was 1.3 µM; with `CCCOC(=O)N1CCN(C(=O)c2ccc3c(Cl)cc(-c4ccc5ocnc5c4)nc3c2)C[C@H]1C` [B243, Propyl (R)-4-(2-(benzo[d]oxazol-5-yl)-4-chloroquinoline-7-carbonyl)-2-methylpiperazine-1-carboxylate], 0.063 µM.
In the case of `CCCOC(=O)N1CCN(C(=O)c2ccc3c(Cl)cc(-c4nccs4)nc3c2)C[C@H]1C` [B080, Propyl (R)-4-(4-chloro-2-(thiazol-2-yl)quinoline-7-carbonyl)-2-methylpiperazine-1-carboxylate], the 50% inhibitory concentration (IC50) was 10 µM.
Consider `CCCOC(=O)N1CCN(C(=O)c2ccc3c(Cl)cc(-c4cc[nH]c4)nc3c2)C[C@H]1C` [B251, Propyl (R)-4-(4-chloro-2-(1H-pyrrol-3-yl)quinoline-7-carbonyl)-2-methylpiperazine-1-carboxylate], for which the half-maximal inhibitory concentration (IC50) amounted to 0.043 µM.
As to `CCCOC(=O)N1CCN(C(=O)c2ccc3c(Cl)cc(-c4ccc5c(c4)CNC5=O)nc3c2)CC1` [B232, Propyl 4-(4-chloro-2-(1-oxoisoindolin-5-yl)quinoline-7-carbonyl)piperazine-1-carboxylate], the half-inhibitory concentration (IC50) is 0.15 µM.
As to `CCCOC(=O)N1CCN(C(=O)c2ccc3c(Cl)c(CC)c(-c4ccccc4)nc3c2)CC1` [B004, Propyl 4-(4-chloro-3-ethyl-2-phenylquinoline-7-carbonyl)piperazine-1-carboxylate], the IC50 is 1.4 µM.
The same measure for `CCCOC(=O)N1CCN(C(=O)c2ccc3c(Cl)c4c(nc3c2)CCNC4)CC1` [C008, Propyl 4-(10-chloro-1,2,3,4-tetrahydrobenzo[b][1,6]naphthyridine-7-carbonyl)piperazine-1-carboxylate]: 4.6 µM; for `CCCOC(=O)N1CCN(C(=O)c2ccc3c(Cl)c4c(nc3c2)C(C)CCC4)CC1` (centres unmarked) [A118, Propyl 4-(9-chloro-5-methyl-5,6,7,8-tetrahydroacridine-3-carbonyl)piperazine-1-carboxylate]: 0.18 µM.
On to `CCCOC(=O)N1CCN(C(=O)c2ccc3c(Cl)cc(-c4ccc(F)c(CN(C)C)c4)nc3c2)CC1` [B167], for which the half-maximal inhibitory concentration (IC50) was found to be 0.66 µM.
With `CCCOC(=O)N1CCN(C(=O)c2ccc3c(Cl)c4c(nc3c2)CC(CCN)CC4)[C@H](C)C1` (stereo partly drawn) [A111, Propyl (3R)-4-(6-(2-aminoethyl)-9-chloro-5,6,7,8-tetrahydroacridine-3-carbonyl)-3-methylpiperazine-1-carboxylate], the concentration for half-maximal inhibition (IC50) is 0.047 µM.
Regarding `CCCOC(=O)N1CCN(C(=O)c2ccc3c(Cl)c4c(nc3c2)CCCC4)C(C#N)C1` (centres unmarked) [A116, Propyl 4-(9-chloro-5,6,7,8-tetrahydroacridine-3-carbonyl)-3-cyanopiperazine-1-carboxylate], the IC50 turned out to be 0.21 µM.
For `CCCOC(=O)N1CCN(C(=O)c2ccc3c(Cl)cc(-c4cccc5[nH]ncc45)nc3c2)CC1` [B141, Propyl 4-(4-chloro-2-(1H-indazol-4-yl)quinoline-7-carbonyl)piperazine-1-carboxylate], the IC50 amounted to 0.63 µM.
With `CCCOC(=O)N1CCN(C(=O)c2ccc3c(Cl)cc(-c4ccc5[nH]c(O)nc5c4)nc3c2)CC1` [B184, Propyl 4-(4-chloro-2-(2-hydroxy-1H-benzo[d]imidazol-5-yl)quinoline-7-carbonyl)piperazine-1-carboxylate] the figure was 0.1 µM.
`CCCOC(=O)N1CCN(C(=O)c2ccc3c(Cl)cc(-c4cnn(C5CCCC5)c4)nc3c2)CC1` [B277, Propyl 4-(4-chloro-2-(1-cyclopentyl-1H-pyrazol-4-yl)quinoline-7-carbonyl)piperazine-1-carboxylate]: the 50% inhibitory concentration (IC50) turned out to be 0.06 µM.
For the compound `Cc1cc(C(=O)N2C3CCCC2CN(C(=O)c2ccc4c(Cl)c5c(nc4c2)CCCC5)C3)no1` [A039, (9-Chloro-5,6,7,8-tetrahydroacridin-3-yl)(9-(5-methylisoxazole-3-carbonyl)-3,9-diazabicyclo[3.3.1]nonan-3-yl)methanone], the half-maximal inhibitory concentration (IC50) came to 1.3 µM.
The same measure for `CCCOC(=O)N1CCN(C(=O)c2ccc3c(Cl)cc(-c4cnn(CC(N)=O)c4)nc3c2)CC1` [B249, Propyl 4-(2-(1-(2-amino-2-oxoethyl)-1H-pyrazol-4-yl)-4-chloroquinoline-7-carbonyl)piperazine-1-carboxylate]: 0.19 µM.
On to `CCCOC(=O)N1CCN(C(=O)c2ccc3c(Cl)cc(-c4cnn(C)c4)nc3c2)[C@@H](C)C1` [B219, Propyl (S)-4-(4-chloro-2-(1-methyl-1H-pyrazol-4-yl)quinoline-7-carbonyl)-3-methylpiperazine-1-carboxylate], for which the IC50 worked out at 0.23 µM.
For the compound `CCCOC(=O)N1CCN(C(=O)c2ccc3c(Cl)cc(-c4ccc(C(=O)OC)nc4)nc3c2)C[C@H]1C` [B178, Propyl (R)-4-(4-chloro-2-(6-(methoxycarbonyl)pyridin-3-yl)quinoline-7-carbonyl)-2-methylpiperazine-1-carboxylate], the half-inhibitory concentration (IC50) turned out to be 0.93 µM.
In the case of `CCCOC(=O)N1CCN(C(=O)c2ccc3c(Cl)c(C)c(-c4ccc(OC)cc4)nc3c2)C[C@@H]1C` [B034, Propyl (S)-4-(4-chloro-2-(4-methoxyphenyl)-3-methylquinoline-7-carbonyl)-2-methylpiperazine-1-carboxylate], the half-maximal inhibitory concentration (IC50) was determined as 0.12 µM.
For `CCCOC(=O)N1CCN(C(=O)c2ccc3c(Cl)cc(-c4ccc(C(N)=O)cc4)nc3c2)C[C@@H]1C` [B146, Propyl (S)-4-(2-(4-carbamoylphenyl)-4-chloroquinoline-7-carbonyl)-2-methylpiperazine-1-carboxylate], the half-maximal inhibitory concentration (IC50) amounted to 0.042 µM.
Turning to `CCCOC(=O)N1CCN(C(=O)c2ccc3c(Cl)c4c(nc3c2)CCCC4)C(CC(=O)N(C)C)C1` (centres unmarked) [A071, Propyl 4-(9-chloro-5,6,7,8-tetrahydroacridine-3-carbonyl)-3-(2-(dimethylamino)-2-oxoethyl)piperazine-1-carboxylate], the concentration for half-maximal inhibition (IC50) was found to be 4.2 µM.
As to `CCCOC(=O)N1CCN(C(=O)c2ccc3c(Cl)cc(-c4cnc5[nH]nc(C)c5c4)nc3c2)C[C@H]1C` [B199, Propyl (R)-4-(4-chloro-2-(3-methyl-1H-pyrazolo[3,4-b]pyridin-5-yl)quinoline-7-carbonyl)-2-methylpiperazine-1-carboxylate], the IC50 is 0.35 µM.
With `CCCOC(=O)N1CCN(C(=O)c2ccc3c(Cl)c4c(nc3c2)CC(c2ccnc(C)c2)CC4)[C@H](C)C1` (stereo partly drawn) [A114, Propyl (3R)-4-(9-chloro-6-(2-methylpyridin-4-yl)-5,6,7,8-tetrahydroacridine-3-carbonyl)-3-methylpiperazine-. 1-carboxylate], the IC50 stood at 0.11 µM.
The same measure for `CCCOC(=O)N1CCN(C(=O)c2ccc3c(Cl)c4c(nc3c2)CC(CCN(C)C)CC4)[C@@H](C)C1` (stereo partly drawn) [A126, Propyl (3S)-4-(9-chloro-6-(2-(dimethylamino)ethyl)-5,6,7,8-tetrahydroacridine-3-carbonyl)-3-methylpiperazine-1-carboxylate]: 0.11 µM.
As to `CCCOC(=O)N1CCN(C(=O)c2ccc3c(Cl)c4c(nc3c2)CC(c2ccncn2)CC4)CC1` (centres unmarked) [A134, Propyl 4-(9-chloro-6-(pyrimidin-4-yl)-5,6,7,8-tetrahydroacridine-3-carbonyl)piperazine-1-carboxylate], the IC50 was 0.14 µM.
In the case of `CCCOC(=O)N1CCN(C(=O)c2ccc3c(Cl)cc(-c4ccc(C(C)(C)CNC)cc4)nc3c2)CC1` [B286, Propyl 4-(4-chloro-2-(4-(2-methyl-1-(methylamino)propan-2-yl)phenyl)quinoline-7-carbonyl)piperazine-1-carboxylate], the IC50 was determined as 0.025 µM.
`CCCOC(=O)N1CCN(C(=O)c2ccc3c(Cl)cc(-c4cnn(C(F)F)c4)nc3c2)CC1` [B230, Propyl 4-(4-chloro-2-(1-(difluoromethyl)-1H-pyrazol-4-yl)quinoline-7-carbonyl)piperazine-1-carboxylate]: the IC50 amounted to 0.7 µM.
In the case of `CCCOC(=O)N1CCN(C(=O)c2ccc3c(Cl)c4c(nc3c2)CC(c2cnccn2)CC4)CC1` (centres unmarked) [A112, Propyl 4-(9-chloro-6-(pyrazin-2-yl)-5,6,7,8-tetrahydroacridine-3-carbonyl)piperazine-1-carboxylate], the IC50 is 0.14 µM.
Turning to `Cc1cc(C(=O)N2CCN(C(=O)c3ccc4c(Cl)c5c(nc4c3)CCCC5)CC2)no1` [A012, (9-Chloro-5,6,7,8-tetrahydroacridin-3-yl)(4-(5-methylisoxazole-3-carbonyl)piperazin-1-yl)methanone], the concentration for half-maximal inhibition (IC50) turned out to be 1.67 µM.
With `CCCOC(=O)N1CCN(C(=O)c2ccc3c(Cl)c4c(nc3c2)CCCC4)CC1CC` (centres unmarked) [A030, Propyl 4-(9-chloro-5,6,7,8-tetrahydroacridine-3-carbonyl)-2-ethylpiperazine-1-carboxylate] the figure was 0.63 µM; with `CCCOC(=O)N1CCN(C(=O)c2ccc3c(Cl)c4c(nc3c2)CC(c2ccncc2)CC4)[C@@H](C)C1` (stereo partly drawn) [A092, Propyl (3S)-4-(9-chloro-6-(pyridin-4-yl)-5,6,7,8-tetrahydroacridine-3-carbonyl)-3-methylpiperazine-1-carboxylate], 0.11 µM.
